Data on one compound can be found in patent publication US11628164B2, “Composition containing salsolinol for treating liver cancer” (SUNGSHIN WOMEN'S UNIVERSITY R&DB FOUNDATION, priority 2020, dated 2023).

The structures appear in SMILES notation.

Data set [1] concerns SK-Hep1. Kind of data set: Colony formation experiment. Format: cell-based, human. As to the method: Among the human-derived liver cancer cell lines, the SK-Hep1, which is a liver cancer cell lines, is dispensed into 96-wells so as to have a concentration of 1×10^4 cells, and then, the SK-Hep1 is treated once every two or three days so that the salsolinol has a concentration of 25 μM or 50 μM. The salsolinol-treated the SK-Hep1 is further cultured for 3 days under the above-mentioned conditions. After that, the SK-Hep1 is fixed with 4% formaldehyde, stained with crystal violet for 2 hours, and after extraction with an acetic acid, the absorbance (570 nm) is measured. After culturing the SK-Hep1 cells at 1×10^4 cells/well for 24 hours, the SK-Hep1 is treated three times at 48 hour intervals with the salsolinol so as to have a concentration of 25 μM or 50 μM, and then the degree of colony formation is checked (refer to FIG. 2). The colony formation experiment for the SK-Hep11 is repeated a total of 4 times, the statistic process is performed, and comparison and analysis are performed. As a result of the experiment, in the case of being treated with the salsolinol having a concentration of 25 μM, it is confirmed that the colony formation ability of the SK-Hep1 is decreased to a level of 50% compared with the SK-Hep1 not treated with the salsolinol. […]

For data set [2], the system named is normal hepatocytes (NCTC1469). As to conditions: NCTC1469, from KR10-2019-0129765; cited from earlier work.
The next data set concerns SNU387. Kind of data set: MTT cell viability, female-derived liver cancer cell line. As to conditions: SNU387, 5-100 μM salsolinol, 24, 48, 72 hours. It counts as cell-based, human. On the procedure:
(§1) SK-Hep1 and SNU387, which are human-derived hepatoma cell lines, are distributed from Korea Cell Line Bank. […] The SK-Hep1 and the SNU387 are cultured in a medium including a minimum essential medium (Dulbecco Modified Eagle Medium, DMEM) (Gibco BRL grand Island, N.Y., USA) and in a medium containing 10% FBS (HyClone Lab, Inc, Logan, Utah, USA), 100 U/ml penicillin. (penicillin) and 100 μg/ml streptomycin (Gibco, Grand Island, N.Y., USA) at 37° C. in an atmosphere of 5% CO2. The cultured liver cancer cell lines (SK-HEP1 and SNU387) are dispensed into each well of a 48-well plate so as to have a concentration of 5×10^4 cells. After culturing for 24 hours, the sample is treated with the salsolinol for 24 hours, 48 hours, and 72 hours so as to have a concentration of 5 μM, 15 μM, 25 μM, 50 μM, or 100 μM. After that, 250 μl of 0.5 mg/ml MTT solution (Sigma, St Louis, Mo., US) is added to each well and reacted at 37° C. for 1 hour. After removing the solution, MTT-formazione is lysed and washed with 250 μl of DMSO (Dimethylsulfoxide, Duksan, Gyeonggi, Korea), and then, the absorbance at 540 nm is measured by using a SpectraMax 190 microplate plate reader (Molecular Devices, LCC. San Jose, Calif.). […]

Data set [3] concerns Ki-67, 8-OHdG in liver tissue. Kind of data set: Immunofluorescence staining of liver tissue (Ki-67, 8-OHdG). It counts as in vivo, C57BL/6 mouse. On the procedure: The salsolinol (200 mg/kg) is administered for 6 months through intraperitoneal injection three times per week from the time when the DEN-induced liver cancer mouse model (male) became 7 weeks of age. After the mouse is sacrificed, the experiment is performed.
In the paraffin section slide requested to be manufactured by NORTHUS Co., Ltd., paraffin is removed by using xylene (Duksan, Gyeonggi, Korea). And, after a hydration process with low concentration ethanol (100, 90, 80, and 70% ethanol) at a high concentration, the slide is rinsed twice with running water. Since formaldehyde forms a cross-link between proteins to prevent a primary antibody from binding to the epitope of the antigen, the cross-link is removed by using an antigen retrieval reagent (sigma). After washing the slide thoroughly with running water, and dropping 2% triton for nuclear staining, the slide is left for 45 minutes. After washing the slide thoroughly with running water, blocking proceeds for 1 hour with a PBS solution containing 3% BSA to prevent non-specific binding. Then, after dropping a diluted PBS solution containing 3% BSA diluted with a primary antibody (8-OHdG, Ki-67) (1:500) on the slide, the slide is left at 4° C. for one day. After washing the slide with PBS and dropping a diluted secondary antibody (1:2000) on the slide, the slide is left at 4° C. for 1 hour. After washing the slide with PBS, staining with DAPI (1:200), and dropping 2-3 drops of mounting solution (sigma), the slide is covered with a slide cover. After about a day, the degree of fluorescence staining is checked by using a confocal microscope.
Tumor-related genes Ki-67 and 8-OHdG expressed in the liver tissue of the DEN-induced liver cancer mouse model (male, DEN), the DEN-induced liver cancer mouse model (male, DEN+SAL) administered with the salsolinol, and the normal mouse (male, SAL) administered with the salsolinol are analyzed by using an immunofluorescence measurement method (refer to FIGS. 10 and 11).

Data set [4] relates to SK-Hep1. As to conditions: cited from earlier work.
For data set [5], the system named is SK-Hep1. As to the kind of experiment: MTT cell viability, male-derived liver cancer cell line. It counts as cell-based, human. To be noted: SK-Hep1, 5-100 μM salsolinol. On the procedure:
as §1

Setting [6] is: normal mouse administered with salsolinol (SAL).
[7] abbreviates: SK-Hep1, from KR10-2019-0129765.

On to `CC1NCCc2cc(O)c(O)cc21` (centres unmarked) [salsolinol, 6,7-dihydroxy-1-methyl-1,2,3,4-tetrahydroisoquinoline], for which the “colony formation ability compared with untreated SK-Hep1” value is given as 50% in the data set on SK-Hep1 [1] (25 μM salsolinol) and 20% in the data set with SK-Hep1 [1] (50 μM salsolinol). For the same compound, the PARP-cleavage / apoptosis entry in data set [2] is listed as “PARP-cleavage is induced to induce apoptosis”. For the same compound, the “fibrosis-related genes and active oxygen species” value in data set [2] is “increases fibrosis-related genes and active oxygen species”. The “cell viability (MTT)” value is “cell viability is not decreased” in the data set with SNU387; “degree of decrease in cell viability according to the treatment concentration of salsolinol increases” with SK-Hep1 [5] (48 and 72 hours); “cell viability decreases as the concentration of salsolinol increases” in the data set on SK-Hep1 [5] (24 hours). The Ki-67 expression entry in data set [3] (DEN+SAL liver) and in data set [3] (setting [6]) was “not confirmed” in each case. The 8-OHdG expression entry in data set [3] (DEN+SAL liver tissue) and in data set [3] (setting [6]) was “at a low level” in each case. Also, the STAT3 phosphorylation entry in the data set with SK-Hep1 [4] (SK-Hep1, from KR10-2019-0129765, 24 hours) was “increases signal transducer and transcription 3 (STAT3) phosphorylation”. The HO-1 expression result in the data set with SK-Hep1 [4] (setting [7]) is listed as “increased”. Also, the cytotoxicity result with SK-Hep1 [4] (setting [7]) was “exhibits cytotoxicity”.
